According to EP3753932A1, “SUBSTITUTED BICYCLIC DERIVATIVES HAVING MULTIMODAL ACTIVITY AGAINST PAIN” (priority 2019, dated 2020):
Read-outs that look alike come from different tables or passages of the source.

Assays:
Human µ-opioid receptor = target: T1, Human µ-opioid receptor (Homo sapiens, UniProt P35372); assay: Human µ-opioid receptor radioligand assay ([3H]-DAMGO); type: binding
T1 construct: expressed in transfected cells; host or cells: CHO-K1
Procedure: Human µ-opioid receptor radioligand assay
Transfected CHO-K1 cell membranes (20 µg) were incubated with [^3H]-DAMGO (1 nM) in assay buffer containing Tris-HCl 50 mM, MgCl2 5 mM at pH 7.4. NBS (non-specific binding) was measured by adding 10 µM Naloxone. The binding of the test compound was measured at either one concentration (% inhibition at 1 or 10 µM) or five different concentrations to determine affinity values (Ki). Plates were incubated at 27 °C for 60 min. After the incubation period, the reaction mixture was then transferred to MultiScreen HTS, FC plates (Millipore), filtered and plates were washed 3 times with ice-cold 10 mM Tris-HCl (pH 7.4). Filters were dried and counted at approximately 40% efficiency in a MicroBeta scintillation counter (Perkin-Elmer) using EcoScint liquid scintillation cocktail.

[1] = target: Human α2δ-1 subunit of Cav2.2 calcium channel (Homo sapiens, UniProt P54289); assay: Human α2δ-1 subunit of Cav2.2 calcium channel assay ([3H]-Gabapentin binding)
Sequence of Human α2δ-1 subunit of Cav2.2 calcium channel (P54289 25-1103): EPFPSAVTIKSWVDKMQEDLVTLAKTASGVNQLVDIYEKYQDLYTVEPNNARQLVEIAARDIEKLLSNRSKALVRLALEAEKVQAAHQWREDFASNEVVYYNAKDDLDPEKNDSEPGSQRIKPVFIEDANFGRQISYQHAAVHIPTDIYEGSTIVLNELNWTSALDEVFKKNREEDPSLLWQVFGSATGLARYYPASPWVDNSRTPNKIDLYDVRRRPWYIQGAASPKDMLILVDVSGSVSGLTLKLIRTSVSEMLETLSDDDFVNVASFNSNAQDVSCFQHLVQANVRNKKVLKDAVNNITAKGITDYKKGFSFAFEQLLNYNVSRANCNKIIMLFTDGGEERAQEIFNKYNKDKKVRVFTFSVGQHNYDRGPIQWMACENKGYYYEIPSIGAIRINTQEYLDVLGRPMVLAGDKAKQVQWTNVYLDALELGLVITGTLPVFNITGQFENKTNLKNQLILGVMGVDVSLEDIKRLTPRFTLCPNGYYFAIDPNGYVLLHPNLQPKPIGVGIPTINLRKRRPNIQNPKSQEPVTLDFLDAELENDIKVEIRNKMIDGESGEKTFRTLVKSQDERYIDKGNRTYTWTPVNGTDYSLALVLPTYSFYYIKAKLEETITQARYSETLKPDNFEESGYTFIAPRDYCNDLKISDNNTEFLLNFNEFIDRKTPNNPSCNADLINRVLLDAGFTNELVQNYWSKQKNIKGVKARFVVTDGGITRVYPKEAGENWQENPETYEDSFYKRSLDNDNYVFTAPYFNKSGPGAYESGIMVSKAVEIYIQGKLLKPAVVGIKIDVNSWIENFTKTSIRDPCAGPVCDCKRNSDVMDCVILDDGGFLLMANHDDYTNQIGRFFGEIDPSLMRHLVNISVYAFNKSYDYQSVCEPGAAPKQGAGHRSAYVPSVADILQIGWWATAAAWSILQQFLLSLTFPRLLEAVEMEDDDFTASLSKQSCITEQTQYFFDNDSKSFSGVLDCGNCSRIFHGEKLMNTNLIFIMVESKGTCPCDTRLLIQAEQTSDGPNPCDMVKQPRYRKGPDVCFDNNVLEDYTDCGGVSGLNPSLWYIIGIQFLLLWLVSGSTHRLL
Procedure: Human α2δ-1 subunit of Cav2.2 calcium channel assay
Human α2δ-1 enriched membranes (2.5 µg) were incubated with 15 nM of radiolabeled [3H]-Gabapentin in assay buffer containing Hepes-KOH 10mM, pH 7.4. NSB (non specific binding) was measured by adding 10 µM pregabalin. The binding of the test compound was measured at either one concentration (% inhibition at 1 or 10 µM) or five different concentrations to determine affinity values (Ki). After 60 min incubation at 27 °C, binding reaction was terminated by filtering through Multiscreen GF/C (Millipore) presoaked in 0.5 % polyethyleneimine in Vacuum Manifold Station, followed by 3 washes with ice-cold filtration buffer containing 50 mM Tris-HCl, pH 7.4. Filter plates were dried at 60 °C for 1 hour and 30 µl of scintillation cocktail were added to each well before radioactivity reading. Readings were performed in a Trilux 1450 Microbeta radioactive counter (Perkin Elmer).

[2] = human α2δ-1 enriched membranes, [3H]-Gabapentin 15 nM, read-out: α2δ-1 binding
[3] = transfected CHO-K1 cell membranes, [3H]-DAMGO 1 nM, read-out: µ-binding

T1 sequence (P35372 whole entry): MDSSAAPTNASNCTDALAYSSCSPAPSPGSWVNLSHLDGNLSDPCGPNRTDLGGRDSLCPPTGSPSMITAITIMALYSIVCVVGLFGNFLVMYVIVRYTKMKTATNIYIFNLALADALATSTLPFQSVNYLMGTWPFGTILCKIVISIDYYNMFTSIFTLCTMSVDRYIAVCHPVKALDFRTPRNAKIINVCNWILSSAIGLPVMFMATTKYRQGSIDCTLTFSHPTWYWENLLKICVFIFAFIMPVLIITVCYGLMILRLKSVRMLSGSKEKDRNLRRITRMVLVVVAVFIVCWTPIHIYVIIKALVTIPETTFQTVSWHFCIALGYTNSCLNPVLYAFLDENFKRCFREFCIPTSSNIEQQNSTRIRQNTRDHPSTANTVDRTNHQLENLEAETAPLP

Row | SMILES | Ki (Human µ-opioid receptor) | Ki [1, 2] | Ki (Human µ-opioid receptor; [3]) | Ki [1]
1 | CCC[C@@H](c1cnc2cc(CN3CCC(c4ccccc4)(N(C)C)CC3)ccc2c1)N1C[C@@H](C)N[C@@H](C)C1 [Example 13, 1-((3-((S)-1-((3S,5R)-3,5-Dimethylpiperazin-1-yl)butyl)quinolin-7-yl)methyl)-N,N-dimethyl-4-phenylpiperidin-4-amine] | 100 to 500 nM | > 5000 nM | – | –
2 | CCCC(c1ncc2cc(N3CCC(c4cccc(O)c4)(N(C)C)CC3)ccc2n1)N1C[C@@H](C)N[C@@H](C)C1 (stereo partly drawn) [Example 25, 3-(4-(Dimethylamino)-1-(2-(1-((3S,5R)-3,5-dimethylpiperazin-1-yl)butyl)quinazolin-6-yl)piperidin-4-yl)phenol] | – | – | < 100 nM | > 5000 nM
3 | CCC[C@H](c1cnc2cc(N3CCC(c4cccc(O)c4)(N(C)C)CC3)ccc2c1)N1C[C@@H](C)N[C@@H](C)C1 [Example 4, 3-(4-(Dimethylamino)-1-(3-((R)-1-((3S,5R)-3,5-dimethylpiperazin-1-yl)butyl)quinolin-7-yl)piperidin-4-yl)phenol] | < 100 nM | 500 to 5000 nM | – | –
4 | CCC[C@H](c1nc2ccc(CN3CCC(c4cccc(O)c4)(N(C)C)CC3)cc2nc1CC)N1C[C@@H](C)N[C@@H](C)C1 [Example 41, 3-(4-(Dimethylamino)-1-((2-((R)-1-((3S,5R)-3,5-dimethylpiperazin-1-yl)butyl)-3-ethylquinoxalin-6-yl)methyl)piperidin-4-yl)phenol] | – | – | < 100 nM | < 500 nM
5 | CCCC(c1ccc2cc(N3CCC(c4cccc(O)c4)(N(C)C)CC3)ccc2n1)N1C[C@@H](C)N[C@@H](C)C1 (stereo partly drawn) [Example 3, 3-(4-(Dimethylamino)-1-(2-(1-((3S,5R)-3,5-dimethylpiperazin-1-yl)butyl)quinolin-6-yl)piperidin-4-yl)phenol] | < 100 nM | 500 to 5000 nM | – | –
6 | CCCC(c1cnc2cc(N3CCC(c4cccc(O)c4)(N(C)C)CC3)ccc2n1)N1C[C@@H](C)N[C@@H](C)C1 (stereo partly drawn) [Example 32, 3-(4-(Dimethylamino)-1-(2-(1-((3S,5R)-3,5-dimethylpiperazin-1-yl)butyl)quinoxalin-6-yl)piperidin-4-yl)phenol] | < 100 nM | 500 to 5000 nM | – | –
7 | CCC[C@H](c1cnc2cc(CN3CCC(c4cccc(O)c4)(N(C)C)CC3)ccc2c1)N1C[C@@H](C)N[C@@H](C)C1 [Example 8, 3-(4-(Dimethylamino)-1-((3-((R)-1-((3S,5R)-3,5-dimethylpiperazin-1-yl)butyl)quinolin-7-yl)methyl)piperidin-4-yl)phenol] | – | – | < 100 nM | < 500 nM
8 | CCC[C@H](c1cnc2ccc(CN3CCC(c4ccccc4)(N(C)C)CC3)cc2c1)N1C[C@@H](C)N[C@@H](C)C1 [Example 18, 1-((3-((R)-1-((3S,5R)-3,5-Dimethylpiperazin-1-yl)butyl)quinolin-6-yl)methyl)-N,N-dimethyl-4-phenylpiperidin-4-amine] | 100 to 500 nM | 500 to 5000 nM | – | –
9 | CCCC(c1cc(OC)c2cc(N3CCC(c4ccccc4)(N(C)C)CC3)ccc2n1)N1C[C@@H](C)N[C@@H](C)C1 (stereo partly drawn) [Example 31, 1-(2-(1-((3S,5R)-3,5-Dimethylpiperazin-1-yl)butyl)-4-methoxyquinolin-6-yl)-N,N-dimethyl-4-phenylpiperidin-4-amine] | – | – | 100 to 500 nM | < 500 nM
10 | CCCC(c1cnc2cc(CN3CCC(c4cccc(O)c4)(N(C)C)CC3)ccc2c1)N1C[C@@H](C)N[C@@H](C)C1 (stereo partly drawn) [Example 6, 3-(4-(Dimethylamino)-1-((3-(1-((3S,5R)-3,5-dimethylpiperazin-1-yl)butyl)quinolin-7-yl)methyl)piperidin-4-yl)phenol] | – | – | < 100 nM | < 500 nM
11 | CCC[C@@H](c1cnc2ccc(CN3CCC(c4cccc(O)c4)(N(C)C)CC3)cc2n1)N1C[C@@H](C)N[C@@H](C)C1 [Example 39, 3-(4-(Dimethylamino)-1-((3-((S)-1-((3S,5R)-3,5-dimethylpiperazin-1-yl)butyl)quinoxalin-6-yl)methyl)piperidin-4-yl)phenol] | < 100 nM | 500 to 5000 nM | – | –
12 | CCC[C@H](c1cnc2ccc(N3CCC(c4cccc(O)c4)(N(C)C)CC3)cc2n1)N1C[C@@H](C)N[C@@H](C)C1 [Example 34, 3-(4-(Dimethylamino)-1-(3-((R)-1-((3S,5R)-3,5-dimethylpiperazin-1-yl)butyl)quinoxalin-6-yl)piperidin-4-yl)phenol] | – | – | < 100 nM | < 500 nM
13 | CCC[C@@H](c1ncc2cc(CN3CCC(c4cccc(O)c4)(N(C)C)CC3)ccc2n1)N1C[C@@H](C)N[C@@H](C)C1 [Example 30, 3-(4-(Dimethylamino)-1-((2-((S)-1-((3S,5R)-3,5-dimethylpiperazin-1-yl)butyl)quinazolin-6-yl)methyl)piperidin-4-yl)phenol] | < 100 nM | > 5000 nM | – | –
14 | CCC[C@@H](c1ccc2cc(CN3CCC(c4cccc(O)c4)(N(C)C)CC3)ccc2n1)N1C[C@@H](C)N[C@@H](C)C1 [Example 11, 3-(4-(Dimethylamino)-1-((2-((S)-1-((3S,5R)-3,5-dimethylpiperazin-1-yl)butyl)quinolin-6-yl)methyl)piperidin-4-yl)phenol] | < 100 nM | 500 to 5000 nM | – | –
15 | CCCC(c1ccc2cc(N3CCC(c4cccc(O)c4)(N(C)C)CC3)ccc2c1)N1C[C@@H](C)N[C@@H](C)C1 (stereo partly drawn) [Example 1, 3-(4-(Dimethylamino)-1-(6-(1-((3S,5R)-3,5-dimethylpiperazin-1-yl)butyl)naphthalen-2-yl)piperidin-4-yl)phenol] | – | – | < 100 nM | > 5000 nM
16 | CCC[C@H](c1cnc2ccc(CN3CCC(c4cccc(O)c4)(N(C)C)CC3)cc2c1)N1C[C@@H](C)N[C@@H](C)C1 [Example 16, 3-(4-(Dimethylamino)-1-((3-((R)-1-((3S,5R)-3,5-dimethylpiperazin-1-yl)butyl)quinolin-6-yl)methyl)piperidin-4-yl)phenol] | – | – | < 100 nM | < 500 nM
17 | CCC[C@@H](c1cnc2ccc(CN3CCC(c4cccc(O)c4)(N(C)C)CC3)cc2c1)N1C[C@@H](C)N[C@@H](C)C1 [Example 17, 3-(4-(Dimethylamino)-1-((3-((S)-1-((3S,5R)-3,5-dimethylpiperazin-1-yl)butyl)quinolin-6-yl)methyl)piperidin-4-yl)phenol] | < 100 nM | > 5000 nM | – | –
18 | CCC[C@H](c1cc2ccc(CN3CCC(c4cccc(O)c4)(N(C)C)CC3)cc2nc1CC)N1C[C@@H](C)N[C@@H](C)C1 [Example 23, 3-(4-(Dimethylamino)-1-((3-((R)-1-((3S,5R)-3,5-dimethylpiperazin-1-yl)butyl)-2-ethylquinolin-7-yl)methyl)piperidin-4-yl)phenol] | – | – | < 100 nM | < 500 nM
19 | CCC[C@H](c1ccc2cc(CN3CCC(c4cccc(O)c4)(N(C)C)CC3)ccc2n1)N1C[C@@H](C)N[C@@H](C)C1 [Example 10, 3-(4-(Dimethylamino)-1-((2-((R)-1-((3S,5R)-3,5-dimethylpiperazin-1-yl)butyl)quinolin-6-yl)methyl)piperidin-4-yl)phenol] | – | – | < 100 nM | < 500 nM
20 | CCC[C@@H](c1cnc2ccc(CN3CCC(c4ccccc4)(N(C)C)CC3)cc2c1)N1C[C@@H](C)N[C@@H](C)C1 [Example 19, 1-((3-((S)-1-((3S,5R)-3,5-Dimethylpiperazin-1-yl)butyl)quinolin-6-yl)methyl)-N,N-dimethyl-4-phenylpiperidin-4-amine] | < 100 nM | > 5000 nM | – | –
21 | CCCC(c1cnc2ccc(CN3CCC(c4cccc(O)c4)(N(C)C)CC3)cc2n1)N1C[C@@H](C)N[C@@H](C)C1 (stereo partly drawn) [Example 37, 3-(4-(Dimethylamino)-1-((3-(1-((3S,5R)-3,5-dimethylpiperazin-1-yl)butyl)quinoxalin-6-yl)methyl)piperidin-4-yl)phenol] | – | – | < 100 nM | < 500 nM
22 | CCCC(c1cnc2ccc(CN3CCC(c4cccc(O)c4)(N(C)C)CC3)cc2c1)N1C[C@@H](C)N[C@@H](C)C1 (stereo partly drawn) [Example 15, 3-(4-(Dimethylamino)-1-((3-(1-((3S,5R)-3,5-dimethylpiperazin-1-yl)butyl)quinolin-6-yl)methyl)piperidin-4-yl)phenol] | – | – | < 100 nM | < 500 nM
23 | CCC[C@@H](c1cc2ccc(CN3CCC(c4cccc(O)c4)(N(C)C)CC3)cc2nc1CC)N1C[C@@H](C)N[C@@H](C)C1 [Example 24, 3-(4-(Dimethylamino)-1-((3-((S)-1-((3S,5R)-3,5-dimethylpiperazin-1-yl)butyl)-2-ethylquinolin-7-yl)methyl)piperidin-4-yl)phenol] | < 100 nM | 500 to 5000 nM | – | –
24 | CCCC(c1cc2ccc(CN3CCC(c4cccc(O)c4)(N(C)C)CC3)cc2nc1CC)N1C[C@@H](C)N[C@@H](C)C1 (stereo partly drawn) [Example 21, 3-(4-(Dimethylamino)-1-((3-(1-((3S,5R)-3,5-dimethylpiperazin-1-yl)butyl)-2-ethylquinolin-7-yl)methyl)piperidin-4-yl)phenol] | – | – | < 100 nM | < 500 nM
